Laboratory results reported in ChEMBL document CHEMBL4418493, “N-hydroxyformamide compounds and compositions comprising them for use as BMP1, TLL1 and/or TLL2 inhibitors” (2018).

Experiments:
[1] = Reduction in PICP levels in human cardiac fibroblasts incubated for 24 to 48 hrs by ELISA; assay type: functional
[2] = Drug metabolism in heparinized pooled human plasma at pH 7.5 assessed as formation of ((2-ethoxy-4-(5-((((R)-2-((R)-1-(N-hydroxyformamido)propyl)heptanamido)methyl)carbamoyl)furan-2-yl)benzamido)methyl)phosphonic acid at 100 to 2000 ng/ml incubated up to 4 or 24 hrs by LC-MS/MS analysis; assay type: ADME, cell-free; conditions: pH 7.5, 24 h
[3] = Reduction in mature collagen deposition levels in human cardiac fibroblasts incubated for 24 to 48 hrs by immunostaining based assay; assay type: functional
[4] = Drug metabolism in heparinized pooled human plasma at pH 7.5 assessed as formation of 4-(5-((((R)-2-((R)-1-(N-hydroxyformamido) propyl)heptanamido)methyl)carbamoyl)furan-2-yl)benzoic acid at 100 to 2000 ng/ml incubated up to 4 or 24 hrs by LC-MS/MS analysis; assay type: ADME, cell-free; conditions: pH 7.5, 24 h
[5] = Drug metabolism in heparinized pooled human plasma at pH 7.5 assessed as formation of (((3-ethoxy-5-(5-((((R)-2-((R)-1-(N-hydroxyformamido)propyl)heptanamido)methyl)carbamoyl)furan-2-yl)phenyl)(hydroxy)phosphoryl)oxy)methyl isopropyl carbonate at 100 to 2000 ng/ml incubated up to 4 or 24 hrs by LC-MS/MS analysis; assay type: ADME, cell-free; conditions: pH 7.5, 24 h

Row | Drug metabolism [2] | Drug metabolism [4] | Drug metabolism [5] | Structure (SMILES) | IC50 [1] [µM] | IC50 [3] [µM]
1 | Metabolite_Detected |  |  | CCCCC[C@@H](C(=O)NCNC(=O)c1ccc(-c2ccc(C(=O)NCP(=O)(O)O)c(OCC)c2)o1)[C@@H](CC)N(C=O)OC(=O)c1ccc(OC)cc1 | < 3.98 | < 1
2 |  | Metabolite_Detected |  | CCCCC[C@@H](C(=O)NCNC(=O)c1ccc(-c2ccc(C(=O)OCC(=O)N(C)C)cc2)o1)[C@@H](CC)N(O)C=O | < 3.98 | 
3 |  | Metabolite_Detected |  | CCCCC[C@@H](C(=O)NCNC(=O)c1ccc(-c2ccc(C(=O)OCCc3ccccc3)cc2)o1)[C@@H](CC)N(O)C=O | < 3.98 | 
4 |  | Metabolite_Detected |  | CCCCC[C@@H](C(=O)NCNC(=O)c1ccc(-c2ccc(C(=O)OCCN3CCOCC3)cc2)o1)[C@@H](CC)N(O)C=O | < 3.98 | 
5 | Metabolite_Detected |  |  | CCCCC[C@@H](C(=O)NCNC(=O)c1ccc(-c2ccc(C(=O)NCP(=O)(O)O)c(OCC)c2)o1)[C@@H](CC)N(C=O)OC(=O)c1ccc(OC)cc1C | < 3.98 | 
6 | Metabolite_Detected |  |  | CCCCC[C@@H](C(=O)NCNC(=O)c1ccc(-c2ccc(C(=O)NCP(=O)(O)O)c(OCC)c2)o1)[C@@H](CC)N(C=O)OC(=O)c1ccccc1 | < 3.98 | 
7 |  | Metabolite_Detected |  | CCCCC[C@@H](C(=O)NCNC(=O)c1ccc(-c2ccc(C(=O)O)cc2)o1)[C@@H](CC)N(C=O)OC(=O)c1ccccc1 |  | 
8 |  |  | Metabolite_Detected | CCCCC[C@@H](C(=O)NCNC(=O)c1ccc(-c2cc(OCC)cc(P(=O)(OCOC(=O)OC(C)C)OCOC(=O)OC(C)C)c2)o1)[C@@H](CC)N(O)C=O |  | 

Row | Structure (SMILES) | Drug metabolism [2] | Drug metabolism [4] | Drug metabolism [5] | IC50 [1] [µM] | IC50 [3] [µM]
9 | CCCCC[C@@H](C(=O)NCNC(=O)c1ccc(-c2ccc(C(=O)NCP(=O)(O)O)c(OCC)c2)o1)[C@@H](CC)N(C=O)OC(=O)c1ccc(CN2CCOCC2)cc1C.O=C(O)C(F)(F)F | Metabolite_Detected |  |  | < 3.98 | 
